Reference: article PMC8843100, “Development of newly synthesised quinazolinone-based CDK2 inhibitors with potent efficacy against melanoma” (Journal of Enzyme Inhibition and Medicinal Chemistry, 2022)

How the values were obtained:
HOP-62 = assay: NCI-60 single dose screen, sulforhodamine B; type: cell-based, human; conditions: Non-small cell lung cancer HOP-62; single dose 10^−5 M
In short: (§1)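 Day 0: seeding. Day 1: time-zero plates processed, test plates dosed at 10 µM. Day 3: fixation and sulforhodamine B staining, with inhibition derived versus untreated and time-zero wells.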

HS 578T = assay: NCI-60 single dose screen, sulforhodamine B; type: cell-based, human; conditions: Breast cancer HS 578T; single dose 10^−5 M
In short: as §1

LOX IMVI = assay: NCI-60 single dose screen, sulforhodamine B; type: cell-based, human; conditions: Melanoma LOX IMVI; single dose 10^−5 M
In short: as §1

RPMI-8226 = assay: NCI-60 single dose screen, sulforhodamine B; type: cell-based, human; conditions: Leukaemia RPMI-8226; single dose 10^−5 M
In short: as §1

UACC-62 = assay: NCI-60 single dose screen, sulforhodamine B; type: cell-based, human; conditions: Melanoma UACC-62; single dose 10^−5 M
In short: as §1

SK-OV-3 = assay: NCI-60 single dose screen, sulforhodamine B; type: cell-based, human; conditions: Ovarian cancer SK-OV-3; single dose 10^−5 M
In short: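 Tested once, at 10^−5 M in DMSO, the compounds stayed on the cells for 2 days before SRB staining. A time-zero control, set one day after seeding, lets cell kill be told apart from growth inhibition.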

[1] = system: melanoma cell line MDA-MB-435; assay: Detection of IC50, MTT assay; type: cell-based; conditions: Homo sapiens, read-out: IC50 (µM)±SD, 50% inhibition of cell viability, Melanoma MDA-MB-435, 48 h
Description: (§2) 2. Detection of IC50 against MDA-MB-435, SNB-75 cell lines and normal cell line WI -38.
(§3) Antiproliferative activities of 5c in melanoma cell line MDA-MB-435, glioblastoma cell line SNB-75 and normal cell line WI -38 and that of 8a in melanoma cell line MDA-MB-435 and normal cell line WI-38 were measured spectrophotometrically using in vitro MTT based toxicology assay kit (catalog no. M -5655, M-8910) (Sigma Aldrich), according to the manufacturer’s protocol. The three examined cell lin es were obtained from American Type Culture Collection (ATCC). Briefly, cells were platted (cells density 1.2 – 1.8 × 10,000 cells/well) in a volume of 100 µl complete growth medium + 100 μl of the tested compound per well in a 96-well […]
(§4) salt solution without phenol red and serum.

[2] = system: normal fibroblast cells WI-38; assay: Cytotoxic activity in normal cells, MTT assay; type: cell-based; conditions: Homo sapiens, WI-38 normal cells, 48 h, read-out: IC50 (µM) ± SD WI-38
Description: as §2, §3, §4

CDK2 = molecular target: T1, CDK2 (Homo sapiens, UniProt P24941); assay: CDK2 inhibition assay, colorimetric 96-well kit (BPS Bioscience); type: biochemical; conditions: in vitro kinase inhibition; read-out: IC50 (µM) ± SD against CDK2
T1 construct: purchased BPS Bioscience 79599
Description: It was reported that CDK2 is overexpressed in melanoma[44]^,[45].
CDK2 enzyme inhibition activity was measured for the quinazolinones 5c and 8a using a colorimetric 96-well CDK2 assay kit (BPS Bioscience) (catalog no. 79599), according to the manufacturer's protocol. All the IC50 values were calculated using GraphPad Prism 7.0 Software.
Figure S1. The pharmacokinetic profile of compound 5c using SwissADME web server.
(1 picture or pasted object on this page, not shown here)

[3] = system: glioblastoma SNB-75 cells; assay: Cell cycle analysis, PI flow cytometry; type: cell-based, human; conditions: SNB-75, after 24 h at IC50 concentration
Description: Melanoma MDA -MB-435 and glioblastoma SNB-75 cells were treated with the quinazolinone 5c for 24 h (at its IC50 concentration), and then cells were washed twice with ice - cold phosphate buffered saline (PBS). Consequently, the treated cells were collected by centrifugation, fixed in ice -cold 70% (v/v) ethanol, washed with PBS, re -suspended with 100 μg/mL RNase, stained with 40 μg/mL propidium iodide (PI), and analyzed by flow cytometry using FACS Calibur (Becton Dickinson, BD, Franklin Lakes, NJ, USA). The cell cycle distributions were calculated using Cell Quest software 5.1 (Becton Dickinson). […]

[4] = system: glioblastoma SNB-75 cells; assay: Apoptosis determination, Annexin V-FITC/PI; type: cell-based, human; conditions: SNB-75, 24 h at IC50 concentration
Description: (§5) The apoptotic activity of quinazolinone 5c in melanoma MDA-MB-435 and glioblastoma SNB-75 cell lines was further studied using Annexin V-FITC assay. […]
(§6) 4. Apoptosis determination
(§7) Annexin V fluorescein isothiocyanate (FITC)/PI apoptosis detection kit (BD Biosciences) was used according to the manufacturer’s instructions to measure the apoptotic activity of compound 5c. Melanoma MDA -MB-435 and glioblastoma SNB -75 cells were cultured to a monolayer then treated with the quinazolinone 5c at its IC50 concentration. The cells then were collected by trypsinisation and 0.5×10^6 cells were washed twice with PBS and stained with 5 µL Annexin V-FITC and 5 µL PI in 1Xbinding buffe r for 15 min. at room temperature in the dark.
(§8) Analyses were performed using FACS Calibur flow cytometer (BD Biosciences, San Jose, CA).

[5] = system: melanoma MDA-MB-435 cells; assay: Apoptosis determination, Annexin V-FITC/PI; type: cell-based, human; conditions: MDA-MB-435, 24 h at IC50 concentration
Description: as §5, §6, §7, §8

SMILES	GI% at 10^−5 M (HOP-62)	GI% at 10^−5 M (HS 578T)	GI% at 10^−5 M (LOX IMVI)	GI% at 10^−5 M (RPMI-8226)	GI% at 10^−5 M (UACC-62)	melting point	other results
O=c1c2ccccc2nc(COc2ccccc2)n1N=CC=Cc1ccccc1 [Compound 6b, 2-(phenoxymethyl)-3-((3-phenylallylidene)amino)quinazolin-4(3H)-one]	– (– means GI < 10%)	– (– means GI < 10%)	27.86%	12.52%	– (– means GI < 10%)	211 to 213 °C	–
COc1cc(C=Nn2c(COc3ccccc3)nc3ccccc3c2=O)ccc1O [Compound 6a, 3-((4-hydroxy-3-methoxybenzylidene)amino)-2-(phenoxymethyl)quinazolin-4(3H)-one]	– (– means GI < 10%)	– (– means GI < 10%)	– (– means GI < 10%)	– (– means GI < 10%)	– (– means GI < 10%)	191 to 193 °C	–
CN1CCN(CC(=O)Nn2c(COc3ccccc3)nc3ccccc3c2=O)CC1 [Compound 8a, 2–(4-methylpiperazin-1-yl)-N-(4-oxo-2-(phenoxymethyl)quinazolin-3(4H)-yl)acetamide]	– (– means GI < 10%)	13.94%	14.73%	23.17%	30.69%	158 to 160 °C	GI% at 10^−5 M (SK-OV-3): 22.99%; IC50 [1]: 6.22 ± 0.53 µM; IC50 [2]: 37.3 ± 2.1 µM; IC50 (CDK2): 1.74 ± 0.062 µM
COc1ccc(NC(=O)CNn2c(COc3ccccc3)nc3ccccc3c2=O)cc1 [Compound 4b, N-(4-methoxyphenyl)-2-((4-oxo-2-(phenoxymethyl)quinazolin-3(4H)-yl)amino)acetamide]	12.71%	– (– means GI < 10%)	– (– means GI < 10%)	– (– means GI < 10%)	– (– means GI < 10%)	146 to 148 °C	–
O=c1c2ccccc2nc(COc2ccccc2)n1NS(=O)(=O)c1ccccc1 [Compound 5a, N-(4-oxo-2-(phenoxymethyl)quinazolin-3(4H)-yl)benzenesulfonamide]	16.59%	– (– means GI < 10%)	– (– means GI < 10%)	– (– means GI < 10%)	– (– means GI < 10%)	114 to 116 °C	–
COc1ccc(N2CCN(CC(=O)Nn3c(COc4ccccc4)nc4ccccc4c3=O)CC2)cc1 [Compound 8c, 2–(4-(4-methoxyphenyl)piperazin-1-yl)-N-(4-oxo-2-(phenoxymethyl)quinazolin-3(4H)-yl)acetamide]	– (– means GI < 10%)	– (– means GI < 10%)	– (– means GI < 10%)	– (– means GI < 10%)	– (– means GI < 10%)	100 to 102 °C	–
O=C(CNn1c(COc2ccccc2)nc2ccccc2c1=O)Nc1ccc(Cl)cc1 [Compound 4c, N-(4-chlorophenyl)-2-((4-oxo-2-(phenoxymethyl)quinazolin-3(4H)-yl)amino)acetamide]	12.12%	19.01%	– (– means GI < 10%)	– (– means GI < 10%)	14.58%	165 to 167 °C	GI% at 10^−5 M (SK-OV-3): 4.95%
O=c1c2ccccc2nc(COc2ccccc2)n1NS(=O)(=O)c1ccc(Cl)cc1 [Compound 5c, 4-chloro-N-(4-oxo-2-(phenoxymethyl)quinazolin-3(4H)-yl)benzenesulfonamide]	25.00%	24.96%	16.40%	– (– means GI < 10%)	23.06%	208 to 210 °C	IC50 [1]: 3.03 ± 0.38 µM; IC50 [2]: 62.5 ± 3.5 µM; %G0-G1 [3]: 39.53%; %G2/M [3]: 31.78%; %Pre-G1 [3]: 44.22%; %S [3]: 28.69%; Comment (cell cycle) [3]: Pre G1 apoptosis and cell growth arrest at G2/M; % Necrosis [4]: 8.61%; %Apoptosis Early [4]: 2.65%; %Apoptosis Late [4]: 32.96%; %Apoptosis Total [4]: 44.22%; % Necrosis [5]: 13.47%; %Apoptosis Early [5]: 4.53%; %Apoptosis Late [5]: 10.65%; %Apoptosis Total [5]: 28.65%; IC50 (CDK2): 0.63 ± 0.022 µM
O=C(CNn1c(COc2ccccc2)nc2ccccc2c1=O)Nc1ccccc1 [Compound 4a, 2-((4-oxo-2-(phenoxymethyl)quinazolin-3(4H)-yl)amino)-N-phenylacetamide]	13.59%	11.86%	– (– means GI < 10%)	– (– means GI < 10%)	– (– means GI < 10%)	135 to 137 °C	–
Cc1ccc(S(=O)(=O)Nn2c(COc3ccccc3)nc3ccccc3c2=O)cc1 [Compound 5b, 4-methyl-N-(4-oxo-2-(phenoxymethyl)quinazolin-3(4H)-yl)benzenesulfonamide]	11.16%	– (– means GI < 10%)	– (– means GI < 10%)	– (– means GI < 10%)	– (– means GI < 10%)	140 to 142 °C	GI% at 10^−5 M (SK-OV-3): −4.74%
O=C(CN1CCN(c2ccccc2)CC1)Nn1c(COc2ccccc2)nc2ccccc2c1=O [Compound 8b, N-(4-oxo-2-(phenoxymethyl)quinazolin-3(4H)-yl)-2–(4-phenylpiperazin-1-yl)acetamid]	– (– means GI < 10%)	10.4%	– (– means GI < 10%)	– (– means GI < 10%)	– (– means GI < 10%)	115 to 117 °C	–
